Data published in patent publication US20240260575A1, “AGRICULTURAL AND HORTICULTURAL FUNGICIDAL COMPOSITION” (Nippon Soda Co., Ltd., priority 2021, published 2024).

Key:
[1] = tested on: cucumber powdery mildew pathogen (Sphaerotheca fuliginea); assay: Cucumber powdery mildew control test; type: in vivo; parameters: scale not given here; details: for control value: sprayed onto cucumber seedlings
From the text: (Test Example) Cucumber Powdery Mildew Control Test 1) Preparation of Drug Solution for Test […] The other components (II) were each formulated into an aqueous solution or suspension having a predetermined concentration. 2) Test A mixed solution of a component (I) and a component (II) at a predetermined concentration was sprayed onto cucumber seedlings (variety: “Shimo-shirazu, creeping type”, cotyledon stage). After natural drying at room temperature, conidiospores of a cucumber powdery mildew pathogen (Sphaerotheca fuliginea) were inoculated by blushing off, and the seedlings were kept in a thermostatic room at 20° C. using a 12 hour light/dark cycle for 7 to 10 days. The states of lesion development on leaves were examined by comparing with that for the untreated case, and the control values were determined. The test was duplicately carried out. The results are shown in Tables 8 to 12 together with expected values calculated as follows. Expected values were calculated by using Colby's equation: […] Here, E denotes an expected value of a control value, M denotes a control value in using a component (I) alone, and N denotes a control value in using a component (II) alone. If the actually measured control value of a composition of a component (I) and a component (II) is higher than the expected value, E, the composition of a component (I) and a component (II) is said to have exerted synergistic effect.

[2] = tested on: gray mold pathogen (Botrytis cinerea); assay: Gray mold antimicrobial test (growth inhibition rate); type: cell-based; parameters: growth inhibition rate, component (II) alone: concentration or dose not given beside the values
Protocol: (Test Example) Gray Mold Antimicrobial Test (Growth Inhibition Rate)
Conidiospores of a gray mold pathogen (Botrytis cinerea) were added to and dispersed in a yeast extract sucrose medium, and a component (I) and a component (II) dissolved in dimethyl sulfoxide at predetermined concentrations were further added and mixed thereto, and the resulting solution was dispensed onto a 96-well microplate and cultivated in the dark at 20° C. for 3 to 5 days. After the cultivation, the turbidity at a wavelength of 405 nm was measured by a microplate reader and compared with that in the untreated case to determine the growth inhibition rate (%) for the gray mold pathogen. The test was duplicately carried out. The results are shown in Tables 3 to 7 together with expected values calculated as follows.
Expected values were calculated by using Colby's equation: E=M+N−MN/100. Here, E denotes an expected value (%) of a growth inhibition rate, M denotes a growth inhibition rate (%) in using a component (I) alone, and N denotes a growth inhibition rate (%) in using a component (II) alone.
If the actually measured growth inhibition rate (%) of a composition of a component (I) and a component (II) is higher than the expected value, E, the composition of a component (I) and a component (II) is said to have exerted synergistic effect.

`COc1ccc(F)cc1C(O)Cn1cc(/C(C)=N/OC(C)C)c(=O)n(C[C@@H](NC(=O)C(C)(C)C)C(C)C)c1=O` (stereo partly shown) [Compound 2] gave a control value ([1]; Table 9, Examination 1, Compound 2 0.4 ppm alone or mixed with component (II)) of 67, a control value ([1]; Table 9, Examination 2, Compound 2 0.4 ppm alone or mixed with component (II)) of 71 and a control value ([1]; Table 9, Examination 3, Compound 2 0.4 ppm alone or mixed with component (II)) of 67. For the same compound, the control value ([1]; Table 9, Examination 4, Compound 2 0.4 ppm alone or mixed with component (II)) was 67, the control value ([1]; Table 9, Examination 5, Compound 2 0.4 ppm alone or mixed with component (II)) was 59 and the control value ([1]; Table 9, Examination 6, Compound 2 0.4 ppm alone or mixed with component (II)) was 67. The growth inhibition rate ([2]; Table 4, Examination 1, Compound 2 (0.25 or 0.063 ppm) alone or mixed with component (II)) was 69%, the growth inhibition rate ([2]; Table 4, Examination 2, Compound 2 (0.25 or 0.063 ppm) alone or mixed with component (II)) was 53% and the growth inhibition rate ([2]; Table 4, Examination 3, Compound 2 (0.25 or 0.063 ppm) alone or mixed with component (II)) was 46%. The growth inhibition rate ([2]; Table 4, Examination 4, Compound 2 (0.25 or 0.063 ppm) alone or mixed with component (II)) was 41% and the growth inhibition rate ([2]; Table 4, Examination 5, Compound 2 (0.25 or 0.063 ppm) alone or mixed with component (II)) was 35%.
`COc1ccc(F)cc1C(O)Cn1cc(/C(C)=N/OC(C)C)c(=O)n(C[C@H](C)NC(=O)C(C)C)c1=O` (stereo partly drawn) [Compound 3, N-((2S)-1-(3-(2-(5-fluoro-2-methoxyphenyl)-2-hydroxyethyl)-5-((E)-1-(isopropoxyimino)ethyl)-2,6-dioxo-3,6-dihydropyrimidin-1(2H)-yl)propan-2-yl)isobutyramide] was tested, and the control value ([1]; Table 10, Examination 1, Compound 3 0.4 ppm alone or mixed with component (II)) was 72, the control value ([1]; Table 10, Examination 2, Compound 3 0.4 ppm alone or mixed with component (II)) was 68 and the control value ([1]; Table 10, Examination 3, Compound 3 0.4 ppm alone or mixed with component (II)) was 56. For the same compound, the control value ([1]; Table 10, Examination 4, Compound 3 0.4 ppm alone or mixed with component (II)) was 61, the control value ([1]; Table 10, Examination 5, Compound 3 0.4 ppm alone or mixed with component (II)) was 34 and the control value ([1]; Table 10, Examination 6, Compound 3 0.4 ppm alone or mixed with component (II)) was 67. It also gave a control value ([1]; Table 10, Examination 7, Compound 3 0.4 ppm alone or mixed with component (II)) of 67, a growth inhibition rate ([2]; Table 5, Examination 1, Compound 3 (0.25 or 0.063 ppm) alone or mixed with component (II)) of 74% and a growth inhibition rate ([2]; Table 5, Examination 2, Compound 3 (0.25 or 0.063 ppm) alone or mixed with component (II)) of 63%. It also gave a growth inhibition rate ([2]; Table 5, Examination 3, Compound 3 (0.25 or 0.063 ppm) alone or mixed with component (II)) of 48% and a growth inhibition rate ([2]; Table 5, Examination 4, Compound 3 (0.25 or 0.063 ppm) alone or mixed with component (II)) of 14%.
Work on `COc1ccccc1C(O)Cn1cc(/C(C)=N/OC(C)C)c(=O)n(C[C@H](C)NC(=O)C(C)C)c1=O` (stereo partly shown) [Compound 4] yielded a control value ([1]; Table 11, Examination 1, Compound 4 0.4 ppm alone or mixed with component (II)) of 78, a control value ([1]; Table 11, Examination 2, Compound 4 0.4 ppm alone or mixed with component (II)) of 64 and a control value ([1]; Table 11, Examination 3, Compound 4 0.4 ppm alone or mixed with component (II)) of 63. For the same compound, the control value ([1]; Table 11, Examination 4, Compound 4 0.4 ppm alone or mixed with component (II)) was 59, the control value ([1]; Table 11, Examination 5, Compound 4 0.4 ppm alone or mixed with component (II)) was 59 and the control value ([1]; Table 11, Examination 6, Compound 4 0.4 ppm alone or mixed with component (II)) was 67. The growth inhibition rate ([2]; Table 6, Examination 1, Compound 4 (0.25 or 0.063 ppm) alone or mixed with component (II)) was 56%, the growth inhibition rate ([2]; Table 6, Examination 2, Compound 4 (0.25 or 0.063 ppm) alone or mixed with component (II)) was 31% and the growth inhibition rate ([2]; Table 6, Examination 3, Compound 4 (0.25 or 0.063 ppm) alone or mixed with component (II)) was 6%. For the same compound, the growth inhibition rate ([2]; Table 6, Examination 4, Compound 4 (0.25 or 0.063 ppm) alone or mixed with component (II)) was 4%, the growth inhibition rate ([2]; Table 6, Examination 5, Compound 4 (0.25 or 0.063 ppm) alone or mixed with component (II)) was 4% and the growth inhibition rate ([2]; Table 6, Examination 6, Compound 4 (0.25 or 0.063 ppm) alone or mixed with component (II)) was 3%.
In the case of `COc1ccc(F)cc1C(Cn1cc(/C(C)=N/OC(C)C)c(=O)n(C[C@H](C)NC(=O)C(C)C)c1=O)OCCC#N` (stereo partly shown) [Compound 5], the control value ([1]; Table 12, Examination 1, Compound 5 0.4 ppm alone or mixed with component (II)) is reported as 83, the control value ([1]; Table 12, Examination 2, Compound 5 0.4 ppm alone or mixed with component (II)) is reported as 60 and the control value ([1]; Table 12, Examination 3, Compound 5 0.4 ppm alone or mixed with component (II)) is reported as 56. For the same compound, the control value ([1]; Table 12, Examination 4, Compound 5 0.4 ppm alone or mixed with component (II)) was 50, the control value ([1]; Table 12, Examination 5, Compound 5 0.4 ppm alone or mixed with component (II)) was 67 and the control value ([1]; Table 12, Examination 6, Compound 5 0.4 ppm alone or mixed with component (II)) was 50. The control value ([1]; Table 12, Examination 7, Compound 5 0.4 ppm alone or mixed with component (II)) was 67, the growth inhibition rate ([2]; Table 7, Examination 1, Compound 5 (0.25 or 0.063 ppm, head span unclear) alone or mixed with component (II)) was 61% and the growth inhibition rate ([2]; Table 7, Examination 2, Compound 5 (0.25 or 0.063 ppm, head span unclear) alone or mixed with component (II)) was 43%. The growth inhibition rate ([2]; Table 7, Examination 3, Compound 5 (0.25 or 0.063 ppm, head span unclear) alone or mixed with component (II)) was 13%, the growth inhibition rate ([2]; Table 7, Examination 4, Compound 5 (0.25 or 0.063 ppm, head span unclear) alone or mixed with component (II)) was 3% and the growth inhibition rate ([2]; Table 7, Examination 5, Compound 5 (0.25 or 0.063 ppm, head span unclear) alone or mixed with component (II)) was 3%. It also gave a growth inhibition rate ([2]; Table 7, Examination 6, Compound 5 (0.25 or 0.063 ppm, head span unclear) alone or mixed with component (II)) of 2%.
`CC(=O)O.CC(=O)O.CC(=O)O.NC(N)=NCCCCCCCCNCCCCCCCCN=C(N)N` [Iminoctadine acetate] was tested, and the “control value, component (II) alone” value ([1]; Table 8, ppm or dilution rate: Thiophanate-methyl 1.6, Triflumizole 25, Cyflufenamid 1.6, Iminoctadine acetate 0.25, Iminoctadine albesilate 1, Picarbutrazox 2000, Ipflufenoquin 1, Bacillus subtilis ×250, Pseudomonas rhodesiae ×2000, Sodium hydrogen carbonate 250, Potassium bicarbonate 250, Orange oil 4000, Linalool 4000, Thymol 100, Neem oil 2000, Prothioconazole 1.6, Mancozeb 63, Mineral oil 500) was 0, the “control value, component (II) alone” value ([1]; Table 9, ppm or dilution rate: Thiophanate-methyl 1.6, Triflumizole 25, Cyflufenamid 1.6, Iminoctadine acetate 0.25, Iminoctadine albesilate 1, Picarbutrazox 2000, Ipflufenoquin 1, Bacillus subtilis ×250, Pseudomonas rhodesiae ×2000, Sodium hydrogen carbonate 250, Potassium bicarbonate 250, Orange oil 1000, Linalool 4000, Thymol 100, Neem oil 2000, Prothioconazole 1.6, Mancozeb 63, Mineral oil 500) was 50 and the “control value, component (II) alone” value ([1]; Table 10, ppm or dilution rate: Thiophanate-methyl 1.6, Triflumizole 25, Cyflufenamid 1.6, Iminoctadine acetate 0.25, Iminoctadine albesilate 1, Picarbutrazox 2000, Ipflufenoquin 1, Bacillus subtilis ×1000, Pseudomonas rhodesiae ×2000, Sodium hydrogen carbonate 250, Potassium bicarbonate 250, Orange oil 1000, Linalool 4000, Thymol 100, Neem oil 2000, Prothioconazole 1.6, Mancozeb 63, Mineral oil 5) was 0. The “control value, component (II) alone” value ([1]; Table 11, ppm or dilution rate: Thiophanate-methyl 1.6, Triflumizole 25, Cyflufenamid 1.6, Iminoctadine acetate 1, Iminoctadine albesilate 1, Picarbutrazox 2000, Ipflufenoquin 1, Bacillus subtilis ×1000, Pseudomonas rhodesiae ×2000, Sodium hydrogen carbonate 250, Potassium bicarbonate 250, Orange oil 1000, Linalool 4000, Thymol 100, Neem oil 2000, Prothioconazole 1.6, Mancozeb 63, Mineral oil 500) was 50, the “control value, component (II) alone” value ([1]; Table 12, ppm or dilution rate: Thiophanate-methyl 1.6, Triflumizole 25, Cyflufenamid 1.6, Iminoctadine acetate 0.25, Iminoctadine albesilate 1, Picarbutrazox 2000, Ipflufenoquin 1, Bacillus subtilis ×1000, Pseudomonas rhodesiae ×2000, Sodium hydrogen carbonate 1000, Potassium bicarbonate 250, Orange oil 1000, Linalool 4000, Thymol 400, Neem oil 2000, Prothioconazole 1.6, Mancozeb 63, Mineral oil) was 17 and the “growth inhibition rate, component (II) alone” value ([2]; Table 3, ppm: Ipflufenoquin 10, Cyflufenamid 10, Thiophamate-methyl 0.4, Iminoctadine acetate 0.08, Iminoctadine albesilate 0.08, Triflumizole 0.0032, Picarbutrazox 0.08, Prothioconazole 0.0032, Mefentrifluconazole 0.00064, Cymoxanil 10, Fludioxonil 0.016, Metyltetraprole 0.4, Florylpicoxamid 0.08, Fluxapyroxad 0.08, Fluopyram 0.4, Potassium phosphite 10, Fipronil 2, Chlorantraniliprole 0.016, Aba) was 25%. The “growth inhibition rate, component (II) alone” value ([2]; Table 4, ppm: Ipflufenoquin 10, Cyflufenamid 2, Thiophamate-methyl 0.4, Iminoctadine acetate 0.08, Iminoctadine albesilate 0.4, Picarbutrazox 10, Prothioconazole 0.0032, Mefentrifluconazole 0.0006, Cymoxanil 10, Fludioxonil 0.016, Metyltetraprole 10, Fluxapyroxad 0.016, Fluopyram 0.4, Potassium phosphite 10, Fipronil 2, Chlorantraniliprole 0.016, Abamectin 0.016, Sulfoxaflor 10, Tebufenozide 0.016) was 56% and the “growth inhibition rate, component (II) alone” value ([2]; Table 7, ppm: Ipflufenoquin 0.08, Cyflufenamid 0.08, Thiophamate-methyl 2, Iminoctadine acetate 0.0001, Iminoctadine albesilate 0.4, Triflumizole 0.4, Prothioconazole 0.0032, Mefentrifluconazole 0.08, Cymoxanil 0.08, Captan 0.08, Fludioxonil 0.08, Metyltetraprole 0.0032, Florylpicoxamid 0.0006, Fluxapyroxad 0.016, Fluopyram 0.0032, Potassium phosphite 0.016, Fipronil 2, Chlorantraniliprole 0.016) was 0%.
